Reference: paper PMC12163317, “The food effect on the pharmacokinetics of TQB3616 capsule in Chinse healthy subjects: a randomized, open-label, single-center, two-period, two-sequence crossover phase I clinical trial” (Frontiers in Pharmacology, 2025)

Assays:
MCF-7 tumor = system: MCF-7 tumor; set-up: method as in unpublished data; details: ref unpublished data, cited from earlier work
[1] = set-up: method as in unpublished data; details: ref unpublished data, cited from earlier work
[2] = Stability of TQB3616 in LC-MS/MS method validation (K2-EDTA plasma matrix); type: in vitro ADME
Experimental: (§1) Plasma concentrations of TQB3616 were quantified using a validated liquid chromatography-tandem mass spectrometry (LC-MS/MS) method. Calibration standards and quality control samples (K2-EDTA plasma matrix) were prepared using [D8]-TQB3616 as the internal standard. Protein precipitation extraction from 100 μL plasma was performed followed by chromatographic separation on a C18 column (50 × 2.1 mm, 1.7 μm). Mass transitions m/z 447.1→431.3 (TQB3616) and m/z 455.2→439.3 (IS) were monitored for quantification.
This study undertook a comprehensive validation of the LC-MS/MS methodology for quantifying TQB3616. The validated quantitative range for TQB3616 was established between 0.3 ng/mL and 300 ng/mL. […] Sample dilution integrity was confirmed at 20-fold dilution.

[3] = system: HR+/HER2-breast cancer MCF-7 cells; set-up: method as in unpublished data; details: in vitro; ref unpublished data; cited from earlier work
[4] = Food effect on pharmacokinetics of TQB3616 capsule, crossover phase I trial, plasma concentration by LC-MS/MS; type: in vivo, human; details: for AUC_Extrap / t1/2 / λZ / AUC0-t / AUC0-∞ / Cmax: mean ± SD; for AUC0-t / AUC0-∞ / Cmax / Tmax: single oral 180 mg; for Tmax: median (min, max)
Experimental: This was a randomized, open-label, single-center, two-period, two-sequence crossover early phase I clinical trial to evaluate the food effect on the pharmacokinetics of TQB3616 capsules in healthy subjects. The trial was conducted at Affiliated Hospital of Changchun University of Chinese Medicine and the protocol was approved by the Ethics Committee of the Affiliated Hospital of Changchun University of Chinese Medicine (CCZYFYLL 2021-006). The ethical approval process of this study complied with the requirements of Good Clinical Practice (GCP), the Declaration of Helsinki and the relevant domestic laws and regulations. All subjects had provided written informed consent before the study.
Subjects were admitted to the research center 2 days prior to drug administration and randomly assigned to either Group A or Group B at a 1:1 ratio. Group A, subjects received the study drug under fasted condition in period one and under fed condition in period 2. Conversely, in Group B, subjects received the study drug under fed conditions in the first period and under fasting conditions in the second period. The study employed a crossover design, with a washout period of at least 19 days between the two treatment periods.
The study protocol mandated that subjects take the medication after an overnight fast lasting at least 10 h. In a fasted condition, subjects consumed a 180 mg TQB3616 capsule with 240 mL of warm water, ensuring they remained and fasted for an additional 4 h post-dose. In a fed condition, subjects consumed a 180 mg TQB3616 capsule with 240 mL of warm water after consuming a high-fat, high-calorie breakfast (approximately 800–1,000 kcal, Supplementary table) 30 min prior to adminstration, subjects began their breakfast and completed the meal within the next 30 min. Capsules were swallowed whole without chewing.
Pharmacokinetic (PK) samples were collected at specific times: 0 h (within 60 min prior to dosing), 1 h, 2 h, 4 h, 5 h, 5.5 h, 6 h, 6.5 h, 7 h, 7.5 h, 8 h, 12 h, 24 h, 48 h, 72 h, 120 h, 168 h and 264 h post-dosing, totaling 18 sampling points. At each scheduled time, approximately 3 mL of blood was collected with a pre-chilled EDTA-K2 tubes. After gentle 180° inversion (×4) for homogenization, samples were immediately transferred to an ice bath. All blood specimens were centrifuged at 3,500 rpm for 10 min within 30 min of collection. The obtained plasma was aliquoted and stored at −80°C ± 10°C until batch analysis.
as §1
Phoenix WinNonlin (version 8.3.4) was used to calculate pharmacokinetic parameters, including: […] (Tmax), area under the curve (AUC) from time zero to the last measurable concentration (AUC0-t), AUC from time zero to observed infinity (AUC0- ∞ ), peak concentration (Cmax),terminal half-life of analyte in plasma (t1/2), terminal rate constant (λz), and extrapolated AUC percentage (AUCextrp (%)). Other statistical analyses were performed using SAS (version 9.4). All tests were considered statistically significant at p < 0.05.
Based on the Pharmacokinetics Parameter Set (PKPS), main parameters were summarized by fasting/fed groups using sample size, arithmetic mean, standard deviation, coefficient of variation, median, minimum, maximum, as well as geometric mean and geometric coefficient of variation.
For the food-effect equivalence analysis set (BES), a mixed-effects model analyzed natural log-transformed Cmax, AUC0-t, and AUC0- ∞ . […]

[5] = Safety analysis, adverse events (CTCAE version 5.0) in the food-effect trial; type: in vivo, human
Source text: The safety analysis utilized the safety data set (SS), comprising all subjects receiving TQB3616 with recorded safety assessments. The safety assessments indicators included adverse events, serious adverse events, laboratory tests (routine blood, blood biochemistry, urinalysis, and coagulation), vital signs ([…]), 12-lead electrocardiogram, and physical examination. The frequency, type, extent, and comorbid medications of all treatment-emergent adverse events (TEAEs) occurring during treatment were recorded systematically documented. For severity, adverse events were rated and documented using the National Cancer Institute-Common Terminology Criteria for Adverse Events (CTCAE) version 5.0. The Medical Dictionary for Regulatory Activities (MedDRA) was used to encode the classification of adverse events. Any adverse events observed during the trial were monitored until resolution, return to baseline levels, or stabilization the subject’s condition.

CDK4/6 = system: CDK4/6; set-up: method as in unpublished data; details: preclinical; ref unpublished data; cited from earlier work
[6] = set-up: method as in unpublished data; details: ref unpublished data; cited from earlier work
[7] = coefficient of variation, equivalence analysis fed vs fasted
[8] = both periods, 16 subjects in safety set

## CC(C)c1c2cc(-c3nc(Nc4ccc(N5CCNCC5)cn4)ncc3F)ccc2nn1C [TQB3616]
MCF-7 tumor; human MCF-7 xenograft model
  anti-tumor efficacy compared with Palbociclib: comparable anti-tumor efficacy to Palbociclib at reduced dosage levels
MCF-7 tumor; in vivo
  MCF-7 tumor growth: suppresses MCF-7 tumor growth in vivo
[1]; continuous dosing
  time to steady-state plasma concentrations: approximately 7 days
[1]; dose range 20–150 mg, single administration
  exposure increase with dose escalation: exposure increase ratio slightly exceeding the dose increase ratio
[2]; method validation
  freeze-thaw stability: endured four freeze-thaw cycles
  stability at room temperature: at least 23.5 h
[2]; −20°C
  long-term stability: 89 days
[2]; −80°C
  long-term stability: 89 days
[3]
  inhibition of proliferation of MCF-7 cells: selectively inhibits proliferation
[4]; Fasted (n = 11)
  AUC_Extrap: 7.57 ± 3.29%
  t1/2: 71.27 ± 11.83 h
  λZ: 0.01 ± 0.002 h⁻¹
  AUC0-t: 3,634.80 ± 2,174.18 h ^a ng/mL
  AUC0-∞: 3,920.86 ± 2,325.20 h ^a ng/mL
  Cmax: 60.39 ± 37.17 ng/mL
  Tmax: 6.0 (5.0, 24.0) h
[4]; Fasted, n = 11
  AUC0-t GeoMean: 3,303.72 h*ng/mL
  AUC0-∞ GeoMean: 3,584.79 h*ng/mL
  Cmax GeoMean: 48.47 ng/mL
[4]; Fed (n = 13)
  AUC_Extrap: 6.97 ± 2.90%
  t1/2: 68.95 ± 10.68 h
  λZ: 0.01 ± 0.002 h⁻¹
  AUC0-t: 5305.30 ± 1948.11 h ^a ng/mL
  AUC0-∞: 5710.59 ± 2,100.68 h ^a ng/mL
  Cmax: 75.39 ± 28.34 ng/mL
  Tmax: 7.0 (7.0, 12.0) h
[4]; Fed, n = 13
  AUC0-t GeoMean: 4792.51 ng·h/mL
  AUC0-∞ GeoMean: 5130.98 ng·h/mL
  Cmax GeoMean: 71.76 ng/mL
[4]; [7]
  AUC0-t CV: 26.51%
  AUC0-∞ CV: 26.07%
  Cmax CV: 53.42%
[4]; fasted as the reference
  AUC0-t Fed/Fasted Ratio (geometric mean ratio): 145.06%
  AUC0-∞ Fed/Fasted Ratio (geometric mean ratio): 143.13%
  Cmax Fed/Fasted Ratio (geometric mean ratio): 148.04%
[4]; fasting
  AUC0-t: 3,634.80 ± 2,174.18 h·ng/mL
  AUC0-∞: 3,920.86 ± 2,325.20 h·ng/mL
[4]; fed compared with fasted
  increase of AUC0-t by food intake: 45.95%
  increase of AUC0-∞ by food intake: 45.65%
  rise in AUC with a meal: 45%
[4]; fed
  AUC0-t: 5305.30 ± 1948.11 ng·h/mL
  AUC0-∞: 5710.59 ± 2,100.68 h·ng/mL
[4]; females
  postprandial increase in AUC: 69.9%
  postprandial increase in Cmax: 33.5%
[4]; males
  postprandial increase in AUC: 38.2%
  postprandial increase in Cmax: 20.9%
[5]; Fasted
  TEAE Abdominal discomfort, n (%): 7.42%
  TEAE Abdominal pain, n (%): 4.94%
  TEAE Blood bilirubin increased, n (%): 1.23%
  TEAE Blood triglycerides increased, n (%): 7.42%
  TEAE Diarrhea, n (%): 13.58%
  TEAE Nausea, n (%): 7.42%
  TEAE Protein total decreased, n (%): 1.23%
  TEAE Thrombocyte count decreased, n (%): 1.23%
  TEAE White blood cells urine positive, n (%): 2.47%
  TEAE emesis, n (%): 6.17%
  TEAE laboratory tests, n (%): 13.58%
[5]; Fed
  TEAE Abdominal discomfort, n (%): 11.11%
  TEAE Abdominal pain, n (%): 2.47%
  TEAE Blood bilirubin increased, n (%): 1.23%
  TEAE Blood bilirubin unconjugated increased, n (%): 1.23%
  TEAE Blood triglycerides increased, n (%): 4.94%
  TEAE Diarrhea, n (%): 12.35%
  TEAE Gastrointestinal Disorders, n (%): 33.33%
  TEAE Head discomfort, n (%): 1.23%
  TEAE Nausea, n (%): 3.7%
  TEAE Nervous System Disorders, n (%): 1.23%
  TEAE Protein total decreased, n (%): 1.23%
  TEAE Red blood cells urine positive, n (%): 1.23%
  TEAE Urinary occult blood positive, n (%): 2.47%
  TEAE emesis, n (%): 3.7%
[5]; both periods
  adverse events related to the drug: 77
  drug-related adverse events of grade II: two
  serious adverse events, deaths, unexpected serious adverse reactions: No serious adverse events, deaths, or unexpected serious adverse reactions occurred
[5]; [8]
  subjects with adverse events: 16
  total adverse events (AEs): 81
[5]; fasted period (range: 0–10 h)
  average time to spontaneous resolution of gastrointestinal reactions: 3.2 h
[5]; fasted period (range: 1.7–7.3 h)
  average time of occurrence of gastrointestinal reactions post-dosing: 4.2 h
[5]; fed period (range: 0–9.8 h)
  average time to spontaneous resolution of gastrointestinal reactions: 2.2 h
[5]; fed period (range: 2.1–8.4 h)
  average time of occurrence of gastrointestinal reactions post-dosing: 4.3 h
CDK4/6
  inhibition of CDK4/6 kinase activity: potent inhibitory effects
[6]
  preclinical toxicity findings: gastrointestinal toxicity and hematological/serum biochemical abnormalities were observed at medium-to-high dose levels
